From patent US11976057B2, “MrgX2 antagonists” (GlaxoSmithKline Intellectual Property Development Limited, priority 2020, dated 2024)

Molecular target: T1, human MRGPRX2 (Homo sapiens, UniProt Q96LB1)
T1 sequence (Q96LB1 1-330): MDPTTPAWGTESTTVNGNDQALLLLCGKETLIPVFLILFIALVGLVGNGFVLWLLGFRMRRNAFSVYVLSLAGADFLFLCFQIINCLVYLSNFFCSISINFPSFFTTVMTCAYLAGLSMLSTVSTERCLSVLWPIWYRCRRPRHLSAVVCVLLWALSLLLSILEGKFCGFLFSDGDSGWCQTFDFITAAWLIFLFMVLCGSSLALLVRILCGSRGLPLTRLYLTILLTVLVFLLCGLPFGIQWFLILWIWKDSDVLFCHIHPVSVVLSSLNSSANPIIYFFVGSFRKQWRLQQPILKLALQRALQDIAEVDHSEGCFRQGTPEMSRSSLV
Experiment: Ca2+ mobilization assay (FLIPR TETRA): inhibition of Cortistatin-14 mediated MRGPRX2 activation

Compound	IC50 [nM]
C[C@@H](C(=O)Nc1ccc(F)cn1)N1CCC(F)(F)[C@@H](c2c[nH]c(=O)c(N)c2)C1 [Example 142, (S)-2-((S)-3-(5-amino-6-oxo-1,6-dihydropyridin-3-yl)-4,4-difluoropiperidin-1-yl)-N-(5-fluoropyridin-2-yl)propanamide]	100 to 3160
C[C@@H](C(=O)Nc1ccc(Oc2ccc(F)cc2F)cn1)[C@H]1CCC(F)(F)[C@@H](c2cc[n+]([O-])cc2)C1 [Example 291, 4-((1R,5S)-5-((R)-1-((5-(2,4-difluorophenoxy)pyridin-2-yl)amino)-1-oxopropan-2-yl)-2,2-difluorocyclohexyl)pyridine 1-oxide]	≤ 10
C[C@@H](C(=O)Nc1ccc(F)cn1)N1CCC(F)(F)C(c2ccc(=O)n(CCS(C)(=O)=O)c2)C1 (stereo partly drawn) [Example 190, (2S)-2-(4,4-difluoro-3-(1-(2-(methylsulfonyl)ethyl)-6-oxo-1,6-dihydropyridin-3-yl)piperidin-1-yl)-N-(5-fluoropyridin-2-yl)propanamide]	100 to 3160
C[C@@H](C(=O)Nc1ccc(C(F)(F)c2ccc(F)cc2)cn1)N1CCC(F)(F)[C@@H](c2ccc(=O)[nH]c2)C1 [Example 102, (S)-N-(5-(difluoro(4-fluorophenyl)methyl)pyridin-2-yl)-2-((S)-4,4-difluoro-3-(6-oxo-1,6-dihydropyridin-3-yl)piperidin-1-yl)propanamide]	10 to 100
CC(C(=O)Nc1ccc(-c2cccs2)cn1)N1CCC(F)(F)[C@@H](c2ccc(=O)[nH]c2)C1 (stereo partly drawn) [Example 50, 2-((S)-4,4-difluoro-3-(6-oxo-1,6-dihydropyridin-3-yl)piperidin-1-yl)-N-(5-(thiophen-2-yl)pyridin-2-yl)propanamide]	100 to 3160
C[C@@H](C(=O)Nc1ccc(C(F)(F)c2ccc(F)cc2)cn1)N1CCC(F)(F)[C@@H](c2cc[n+]([O-])cc2)C1 [Example 127, 4-((S)-1-((S)-1-((5-(difluoro(4-fluorophenyl)methyl)pyridin-2-yl)amino)-1-oxopropan-2-yl)-4,4-difluoropiperidin-3-yl)pyridine 1-oxide]	10 to 100
C[C@@H](C(=O)Nc1ccc(Oc2ccc(F)cc2)cn1)N1CCC(F)(F)[C@@H](c2c[nH]c(=O)c(CO)c2)C1 [Example 156]	≤ 10
Cc1cccc(-c2ccc(NC(=O)[C@H](C)N3CCC(F)(F)[C@@H](c4ccc(=O)[nH]c4)C3)nc2)c1 [Example 16, (S)-2-((S)-4,4-difluoro-3-(6-oxo-1,6-dihydropyridin-3-yl)piperidin-1-yl)-N-(5-(m-tolyl)pyridin-2-yl)propanamide]	10 to 100
CNCc1cc([C@H]2CN([C@@H](C)C(=O)Nc3cnc(Oc4ccc(F)cc4F)cn3)CCC2(F)F)c[nH]c1=O [Example 244, (S)-2-((S)-4,4-difluoro-3-(5-((methylamino)methyl)-6-oxo-1,6-dihydropyridin-3-yl)piperidin-1-yl)-N-(5-(2,4-difluorophenoxy)pyrazin-2-yl)propanamide]	≤ 10
C[C@@H](C(=O)Nc1ccc(F)cn1)N1CCC(F)(F)[C@@H](c2c[nH]c(=O)c(CC(F)(F)F)c2)C1 [Example 151, (S)-2-((S)-4,4-difluoro-3-(6-oxo-5-(2,2,2-trifluoroethyl)-1,6-dihydropyridin-3-yl)piperidin-1-yl)-N-(5-fluoropyridin-2-yl)propanamide]	10 to 100
C[C@@H](C(=O)Nc1ccc(Oc2ccc(F)cc2)cn1)N1CCC(F)(F)[C@@H](c2cc[n+]([O-])c(CO)c2)C1 [Example 254, 4-((S)-4,4-difluoro-1-((S)-1-((5-(4-fluorophenoxy)pyridin-2-yl)amino)-1-oxopropan-2-yl)piperidin-3-yl)-2-(hydroxymethyl)pyridine 1-oxide]	≤ 10
CC(C(=O)Nc1ccc(Cc2nccs2)cn1)N1CCC(F)(F)[C@@H](c2ccc(=O)[nH]c2)C1 (stereo partly drawn) [Example 52, 2-((S)-4,4-difluoro-3-(6-oxo-1,6-dihydropyridin-3-yl)piperidin-1-yl)-N-(5-(thiazol-2-ylmethyl)pyridin-2-yl)propanamide]	100 to 3160
C[C@@H](C(=O)Nc1ccc(Cc2ccccc2)cn1)N1CCC(F)(F)[C@@H](c2ccc(=O)[nH]c2)C1 [Example 7, (S)-N-(5-benzylpyridin-2-yl)-2-((S)-4,4-difluoro-3-(6-oxo-1,6-dihydropyridin-3-yl)piperidin-1-yl)propanamide]	≤ 10
C[C@@H](C(=O)Nc1ccc(C2CC2)cn1)N1CCC(F)(F)[C@@H](c2ccc(=O)[nH]c2)C1 [Example 15, (S)-N-(5-cyclopropyl-pyridin-2-yl)-2-((S)-4,4-difluoro-3-(6-oxo-1,6-dihydropyridin-3-yl)piperidin-1-yl)propanaraide]	10 to 100
C[C@@H](C(=O)Nc1ccc(Oc2ncccc2F)cn1)N1CCC(F)(F)[C@@H](c2cc[n+]([O-])cc2)C1 [Example 125, 4-((S)-4,4-difluoro-1-((S)-1-((5-((3-fluoropyridin-2-yl)oxy)pyridin-2-yl)amino)-1-oxopropan-2-yl)piperidin-3-yl)pyridine 1-oxide]	10 to 100
Cc1ccccc1Oc1ccc(NC(=O)[C@H](C)N2CCC(F)(F)[C@@H](c3ccc(=O)[nH]c3)C2)nn1 [Example 20]	100 to 3160
C[C@@H](C(=O)Nc1ccc(Oc2ccc(F)cn2)cn1)[C@H]1CCC[C@@H](c2cc[n+]([O-])cc2)C1 [Example 287, 4-((1R,3S)-3-((R)-1-((5-((5-fluoropyridin-2-yl)oxy)pyridin-2-yl)amino)-1-oxopropan-2-yl)cyclohexyl)pyridine 1-oxide]	10 to 100
CC(C)c1ccc(NC(=O)C(C)N2CCC(F)(F)[C@@H](c3ccc(=O)[nH]c3)C2)nc1 (stereo partly drawn) [Example 82, 2-((S)-4,4-difluoro-3-(6-oxo-1,6-dihydropyridin-3-yl)piperidin-1-yl)-N-(5-isopropylpyridin-2-yl)propanamide]	100 to 3160
CC(C(=O)Nc1ccc(Oc2ccccc2)cn1)N1CCC(F)(F)C(c2cc[n+]([O-])cc2)C1 (stereo not drawn) [Example 110]	≤ 10
C[C@@H](C(=O)Nc1ccc(OCC2CC2)nn1)N1CCC(F)(F)[C@@H](c2ccc(=O)[nH]c2)C1 [Example 8, N-(6-(cyclopropylmeth-oxy)pyridazin-3-yl)-2-((S)-4,4-difluoro-3-(6-oxo-1,6-dihydropyridin-3-yl)piperidin-1-yl)propanamide]	10 to 100
C[C@@H](C(=O)Nc1ccc(Oc2ccc(F)cc2F)cn1)N1CCC(F)(F)C(c2c[nH]c(=O)c(C(O)C(F)(F)F)c2)C1 (stereo partly drawn) [Example 212, (2S)-2-(4,4-difluoro-3-(6-oxo-5-(2,2,2-trifluoro-1-hydroxyethyl)-1,6-dihydropyridin-3-yl)piperidin-1-yl)-N-(5-(2,4-difluorophenoxy)pyridin-2-yl)propanamide]	≤ 10
C[C@@H](C(=O)Nc1cnc(Oc2ccc(F)cc2F)cn1)[C@H]1CCC(F)(F)[C@@H](c2cc[n+]([O-])cc2)C1 [Example 295, 4-((1R,5S)-5-((R)-1-((5-(2,4-difluorophenoxy)pyrazin-2-yl)amino)-1-oxopropan-2-yl)-2,2-difluorocyclohexyl)pyridine 1-oxide]	≤ 10
C[C@@H](C(=O)Nc1ccc(Oc2c(F)cccc2F)cn1)N1CCC(F)(F)[C@@H](c2cc[n+]([O-])cc2)C1 [Example 130, 4-((S)-1-((S)-1-((5-(2,6-difluorophenoxy)pyridin-2-yl)amino)-1-oxopropan-2-yl)-4,4-difluoropiperidin-3-yl)pyridine 1-oxide]	≤ 10
CC(C(=O)Nc1ccc(C2CCCCC2)cn1)N1CCC(F)(F)[C@@H](c2ccc(=O)[nH]c2)C1 (stereo partly drawn) [Example 42, N-(5-cyclohexyl-pyridin-2-yl)-2-((S)-4,4-difluoro-3-(6-oxo-1,6-dihydropyridin-3-yl)piperidin-1-yl)propanamide]	100 to 3160
C[C@@H](C(=O)Nc1ccc2c(n1)CN(C1CC1)C2)N1CCC(F)(F)[C@@H](c2ccc(=O)[nH]c2)C1 [Example 32, (S)-N-(6-cyclopropyl-6,7-dihydro-5H-pyrrolo[3,4-b]pyridin-2-yl)-2-((S)-4,4-difluoro-3-(6-oxo-1,6-dihydropyridin-3-yl)piperidin-1-yl)propanamide]	100 to 3160
Cc1cccc(-c2ccc(NC(=O)[C@H](C)N3CCC(F)(F)[C@@H](c4ccc(=O)[nH]c4)C3)nc2)n1 [Example 11, (S)-2-((S)-4,4-difluoro-3-(6-oxo-1,6-dihydropyridin-3-yl)piperidin-1-yl)-N-(6-methyl-[2,3′-bipyridin]-6′-yl)propanamide]	100 to 3160
C[C@@H](C(=O)Nc1ccc2cc(C3CC3)ccc2n1)N1CCC(F)(F)[C@@H](c2ccc(=O)[nH]c2)C1 [Example 25, (S)-N-(6-cyclopropylquino-lin-2-yl)-2-((S)-4,4-difluoro-3-(6-oxo-1,6-dihydropyridin-3-yl)piperidin-1-yl)propanamide]	100 to 3160
C[C@@H](C(=O)Nc1cnc(Oc2ccc(F)cc2)cn1)N1CCC(F)(F)[C@@H](c2ccc(=O)[nH]c2)C1 [Example 68, (S)-2-((S)-4,4-difluoro-3-(6-oxo-1,6-dihydropyridin-3-yl)piperidin-1-yl)-N-(5-(4-fluorophenoxy)pyrazin-2-yl)propanamide]	10 to 100
C[C@@H](C(=O)Nc1ccc(Oc2ccc(F)cn2)cn1)N1CCC(F)(F)[C@@H](c2ccc(=O)[nH]c2)C1 [Example 69, (S)-2-((S)-4,4-difluoro-3-(6-oxo-1,6-dihydropyridin-3-yl)piperidin-1-yl)-N-(5-((5-fluoropyridin-2-yl)oxy)pyridin-2-yl)propanamide]	≤ 10
C[C@@H](C(=O)Nc1ccc(OCC2CC2)cn1)N1CCC(F)(F)[C@@H](c2ccc(=O)[nH]n2)C1 [Example 145, (S)—N-(5-(cyclopropylmethoxy)pyridin-2-yl)-2-((R)-4,4-difluoro-3-(6-oxo-1,6-dihydropyridazin-3-yl)piperidin-1-yl)propanamide]	10 to 100
